The record followed here is patent publication US20250382631A1, “PROTAC-CID SYSTEMS FOR USE IN MULTIPLEX GENE REGULATION” (William Marsh Rice University, priority 2022, published 2025).

Like-named read-outs stand apart in the source and are kept apart here.

Format in all cases: cell-based, human
Assay [1] concerns pUAS-1-driven EYFP expression in HEK293T cells transfected with GAL4- and VPR-fused PROTAC target protein / E3 ubiquitin ligase. Kind of assay: PROTAC-CID inducible EYFP gene activation, flow cytometry. As to conditions: for Bottom (best-fit value) / Span (best-fit value) / Top (best-fit value): Table 4 nonlinear regression of EYFP activation; for Bottom (best-fit value) / Span (best-fit value) / Top (best-fit value) / Hillslope (best-fit value) / logEC50 (best-fit value): FIG. 13A; for Hillslope (best-fit value) / logEC50 (best-fit value): Table 4 nonlinear regression; for increase in EYFP expression / EYFP induction compared to DMSO-treated controls: bromodomain-VPR fusion co-transfected with GAL4-VHL, FIG. 1C 5 μM dTRIM24, FIG. 1D 100 nM MZ1 or 1 μM AT1. As to the method: (§1) Fluorescence assay using flow cytometry analysis. Cells were treated with 0.05% Trpsin EDTA (Thermo Fisher Scientific no. 25300054) or TrypLE (Thermo Fisher Scientific no. 12605028) after transfection and centrifuged at 3000 g for 5 min. Supernatant was removed and the cell pellet was resuspended with 200 μL phosphate buffered saline (PBS) without calcium and magnesium (Thermo Fisher Scientific no. 10010023). Cells were transferred into 12×75 mm flow tubes (Global Scientific no. 110410). Cells were analyzed by MA900 flow cytometry (SONY). 405 nm laser (FL6 filter) was used for testing the BFP channel. 488 nm (FL1 filter) was used for testing the EYFP and GFP channel. Automated alignment using Automatic Setup Beads kit (SONY no. LE-B3001) is performed before running samples. In FIGS. 3A, 3B, and 17, experiments were performed under 2% FSC, 17% BSC, 24% FL1. In FIG. 18, experiments were performed under 2% FSC, 17% BSC, 27% FL1. All the other experiments were performed under 2% FSC, 17% BSC, 24% FL1 and 27% FL6. Flow cytometry data was processed and analyzed by FlowJo 10. Events were first gated with forward scatter-Area (FSC-A) and side scatter-Area (SSC-A) to select viable cells and remove the debris and dead cells. Cells were further gated with FSC-A and FSC-Height (FSC-H) for selecting single cells. The mean intensity of the reporter fluorescent protein (BFP and EYFP) in viable and single cell populations were calculated by FlowJo 10 as the mean of FL6-A and FL1-A. When calculating the fold change of relative fluorescence units (RFU), the relative fluorescence units of EYFP was calculated by dividing the mean of fluorescence intensity of EYFP with the mean of BFP fluorescence intensity for normalization as the following formula: […]
(§2) Next, the mean of the normalized relative fluorescence units of induced group were divided by the value of control group for calculating the fold change as the following formula: […]
(§3) Transfection and microscopy. HEK293T cells (American Type Culture Collection, no. CRL-3216) were cultured with high-glucose Dulbecco's modified Eagle's medium (DMEM) (Thermo Fisher Scientific no. 10569044) with 10% fetal bovine serum (FBS) (Thermo Fisher Scientific no. 10437028) and 1×penicillin-streptomycin (Thermo Fisher Scientific no. 15140122) at 37° C. with 5% CO2. Except for the data in FIGS. 3C, 3E, and 3H, cells were plated into 96 well plate (Corning no. 3598) and transfected by Polyethyleneimine Max (PEI Max) (Polysciences no. 24765-1). 1.5 μL PEI Max (1 mg/mL, pH=7.1) and 100 μl DMEM were mixed with plasmids to be slowly dropped into the cell medium after 30 mins of incubation. Medium was changed 12 hours post-transfection. The inductive small molecules, including Rapamycin (STEM CELL technologies no. 73362), dTAG-13 (TOCRIS no. 6605/5), dTAG^V-1 (TOCRIS no. 6744-5), dBRD9 (TOCRIS no. 6606/5), dTRIM24 (TOCRIS no. 6607/5), MZ1 (TOCRIS no. 6154/5), AT1 (TOCRIS no. 6356/5), TL13-12 (TOCRIS no. 6744/5), TL13-112 (TOCRIS no. 6745/5), dTAG-7 (TOCRIS no. 69125), ZXH3-26 (TOCRIS no. 6713/5) and ABA (GoldBio no. A-050-100), dissolved in Dimethyl sulfoxide (DMSO) (Sigma, no. D8418) were added. For the microscopy observation, the images were taken by Microscopy EVOS (Life Technologies) and processed by ImageJ (Schneider et al., 2012). If not otherwise noted, 60 ng of each plasmid were used for each sample.
(§4) Step-by-step fluorescence protein activation assay protocol. Reagents: • 1. PEI Max (Polysciences no. 24765-1) • 2. DMEM, high glucose, GlutaMAX™ Supplement, pyruvate (Thermo Fisher Scientific no. 10569044) • 3. Penicillin-Streptomycin (10,000 U/mL) (Thermo Fisher Scientific no. 15140122) • 4. Fetal Bovine Serum 500ML (FBS) (Thermo Fisher Scientific no. 10437028) • 5. TrypLE™ Express Enzyme (1×), phenol red (Thermo Fisher Scientific no. 12605068) • 6. PBS pH=7.4 (Thermo Fisher Scientific no. 10010023) • 7. Sony sorting chip […] for MA900 (SONY no. LE-C3210) • 8. Automatic Setup Beads kit (SONY no. LE-B3001) • 9. […]

Experiment in assay [2]: as above
As to conditions: Homo sapiens, HEK-293T, FIG. 13A. The method, then: as §1, §2, §3, §4

Assay [3] concerns pUAS-2-Fluc expression in HEK293T cells with cognate or non-cognate GAL4/VPR protein pairs. Kind of assay: Orthogonality analysis, Firefly luciferase (Fluc) luminescence. The settings on record: seven different protein pairs, 2 days, FIGS. 2A and 14. The method, then:
Luciferase luminescence intensity measurement. Before transfection, HEK293T cells were seeded in clear bottom 96 well assay plates (Corning no. 3610) with 100 μL DMEM with 10% FBS and 1× penicillin-streptomycin at 37° C. with 5% CO2. When cells reached 50% confluency, 1.5 μL PEI Max (1 mg/mL, pH=7.1) and 100 μL DMEM were mixed with 60 ng of each plasmid (GAL4 and VPR fused target protein or E3 ubiquitin ligase, pUAS-2-Fluc) for 30 min at room temperature. Mixture was transferred into cells gently. 12 h after transfection, medium was changed, and the inductive small molecules were supplied. 2-days post induction, 120 μL of medium was aspirated from each well containing 200 μL of medium, leaving 80 μL of medium per well, then treated with 40 μL of lysis buffer (500 mM DTT (Sigma no. D0632), 10 mM coenzyme A (RPI no. C95275), 100 mM ATP (Thermo Fisher Scientific no. R1441), 80 mg/mL D-luciferin (GoldBio no. LUCNA-100), Triton lysis buffer (0.1082 M Tris-HCl, 0.0419 M Tris-Base, 75 mM NaCl, 3 mM MgCl2)). Plate was shaken with 20 seconds in “Orbital” mode with frequency of 432 rpm and Amplitude of 1 mm to lysis the cells. Recording the luminescence by plate reader Infinite M200 (TECAN) with 1000 ms integration time using Megellan v1.7 (TECAN). Mean of luciferase luminescence relative light units (RLU) was calculated by the average of three biological replications. Normalized RLU were calculated by dividing RLU of the tested group with mean of RLU of DMSO treated control group for normalization: […]

Setting [4] is: Table 4 nonlinear regression, Prism 9 [Agonist] vs. response variable slope (four parameters), no unit in table (the source gives nM), read-out: EC50 (best-fit value).
Where [5] appears, read: dose-response, read-out: EC50 for gene activation.

With `Nc1cccc2c1CN(C1CCC(=O)NC1=O)C2=O` (centres unmarked) [Lenalidomide], the “inducible gene activation efficiency compared with dTAG-13 PROTAC-CID” value in assay [1] (CRBN-VPR with GAL4 fused IKZF1 or IKZF3, Lenalidomide 1 μM vs 100 nM dTAG-13, 2 days, FIGS. 11D-11E) is reported as “significantly less efficient than the dTAG-13 PROTAC-CID system”.
What is called EC50 is the concentration that produces a half-maximal response. In the case of `CCCOc1cccc(Oc2cc3c(cc2NS(=O)(=O)c2cccc(C(=O)NCCOCCOCCOCC(=O)N[C@H](C(=O)N4C[C@H](O)C[C@H]4C(=O)NCc4ccc(-c5scnc5C)cc4)C(C)(C)C)c2)n(C)c(=O)n3C)c1` [dTRIM24], the “grades of EYFP intensity” value in assay [1] (HEK293T transfected with GAL4-VHL, TRIM24^BD-VPR, BRD4^BD2-VPR and reporter plasmid, FIG. 2E: dTRIM24, MZ1 100 nM) worked out at 37 fold. Moreover, in assay [1], the “Bottom (best-fit value)” value worked out at 0.5037, the “Span (best-fit value)” value stood at 1430, the “Top (best-fit value)” value is 1431 and the “Hillslope (best-fit value)” value was 1.463. In addition, the “logEC50 (best-fit value)” value in assay [1] was determined as 3.803. Also, the “fold change gene activation activity” value in assay [1] (at 5 μM) was “more than 500 fold”. Further, in assay [1] (below 1 μM), the “fold change in EYFP expression” value was “less than 100 fold”. In assay [2] (setting [4]), the concentration for a half-maximal effect (EC50) was determined as 6350 nM. Moreover, the EC50 in assay [2] (setting [5]) was found to be 6300 nM.
`COc1cc(N2CCN(CCOCCOCCNC(=O)CNc3cccc4c3C(=O)N(C3CCC(=O)NC3=O)C4=O)CC2)ccc1Nc1ncc(Cl)c(Nc2ccccc2S(=O)(=O)C(C)C)n1` (centres unmarked) [TL13-12]: in assay [3], the “orthogonality: Fluc activation with cognate vs non-cognate protein partners” value is “interact with the same protein pairs”.
On to `CC1=CC(=O)CC(C)(C)[C@@]1(O)/C=C/C(C)=C\C(=O)O` [ABA, abscisic acid], for which, in assay [1], the “Bottom (best-fit value)” value is listed as 1.587, the “Span (best-fit value)” value came to 77.84, the “Top (best-fit value)” value was determined as 79.43 and the “Hillslope (best-fit value)” value stood at 2.083. Besides, the “logEC50 (best-fit value)” value in assay [1] is reported as 2.882. Besides, the half-maximal effective concentration (EC50) in assay [2] (setting [4]) worked out at 763 nM. In addition, in assay [2] (setting [5]), the concentration for a half-maximal effect (EC50) is 763 nM.
For the molecule `Cc1cc(Nc2ncc(Cl)c(Nc3ccccc3S(=O)(=O)C(C)C)n2)c(OC(C)C)cc1C1CCN(CCOCCOCCNC(=O)CNc2cccc3c2C(=O)N(C2CCC(=O)NC2=O)C3=O)CC1` (centres unmarked) [TL13-112], in assay [3], the “orthogonality: Fluc activation with cognate vs non-cognate protein partners” value is reported as “interact with the same protein pairs”.
Same read-out and setting: next, `CC(=O)N[C@H](C(=O)N1C[C@H](O)C[C@H]1C(=O)NCc1ccc(-c2scnc2C)cc1)C(C)(C)SCCCCCCNC(=O)C[C@@H]1N=C(c2ccc(Cl)cc2)c2c(sc(C)c2C)-n2c(C)nnc21` [AT1]: “interact with the same protein pairs”.

B1: TRIM24BD-VPR: Fusion protein of VPR with the bromodomain of TRIM24 (SEQ ID NO: 4) (protein)
chain: MPKKKRKVGGGSPGGGGSPNEDWCAVCQNGGELLCCEKCPKVFHLSCHVPTLTNFPSGEWICTFCRDLSKPEVEYDCDAPSHNSEKKKTEGLVKLTPIDKRKCERLLLFLYCHEMSLAFQDPVPLTVPDYYKIIKNPMDLSTIKKRLQEDYSMYSKPEDFVADFRLIFQNCAEFNEPDSEVANAGIKLENYFEELLKNLYPGGGSRADPKKKRKVEASGSGRADALDDFDLDMLGSDALDDFDLDMLGSDALDDFDLDMLGSDALDDFDLDMLINSRSQYLPDTDDRHRIEEKRKRTYETFKSIMKKSPFSGPTDPRPPPRRIAVPSRSSASVPKPAPQPYPFTSSLSTINYDEFPTMVFPSGQISQASALAPAPPQVLPQAPAPAPAPAMVSALAQAPAPVPVLAPGPPQAVAPPAPKPTQAGEGTLSEALLQLQFDDEDLGALLGNSTDPAVFTDLASVDNSEFQQLLNQGIPVAPHTTEPMLMEYPEAITRLVTGAQRPPDPAPAPLGAPGLPNGLLSGDEDFSSIADMDFSALLGSGSGSRDSREGMFLPKPEAGSAISDVFEGREVCQPKRIRPFHPPGSPWANRPLPASLAPTPTGPVHEPVGSLTPAPVPQPLDPAPAVTPEASHLLEDPDEETSQAVKALREMADTVIPQKEEAAICGQMDLSHPPPRGHLDELTTTLESMTEDLNLDSPLTPELNEILDTFLNDECLLHAMHISTGLSIFDTSLFTSGGGSKRPAATKKAGQAKKKKSR
Regarding B1, the “increase in EYFP expression / EYFP induction compared to DMSO-treated controls” value in assay [1] is given as 592 fold.

B2: BRD4^BD2-VPR: Fusion protein of VPR with bromodomain BD2 of BRD4 (SEQ ID NO: 7) (protein)
chain: MPKKKRKVGGGSPGGGGSSKVSEQLKCCSGILKEMFAKKHAAYAWPFYKPVDVEALGLHDYCDIIKHPMDMSTIKSKLEAREYRDAQEFGADVRLMFSNCYKYNPPDHEVVAMARKLQDVFEMRFAKMPDGGGSRADPKKKRKVEASGSGRADALDDFDLDMLGSDALDDFDLDMLGSDALDDFDLDMLGSDALDDFDLDMLINSRSQYLPDTDDRHRIEEKRKRTYETFKSIMKKSPFSGPTDPRPPPRRIAVPSRSSASVPKPAPQPYPFTSSLSTINYDEFPTMVFPSGQISQASALAPAPPQVLPQAPAPAPAPAMVSALAQAPAPVPVLAPGPPQAVAPPAPKPTQAGEGTLSEALLQLQFDDEDLGALLGNSTDPAVFTDLASVDNSEFQQLLNQGIPVAPHTTEPMLMEYPEAITRLVTGAQRPPDPAPAPLGAPGLPNGLLSGDEDFSSIADMDFSALLGSGSGSRDSREGMFLPKPEAGSAISDVFEGREVCQPKRIRPFHPPGSPWANRPLPASLAPTPTGPVHEPVGSLTPAPVPQPLDPAPAVTPEASHLLEDPDEETSQAVKALREMADTVIPQKEEAAICGQMDLSHPPPRGHLDELTTTLESMTEDLNLDSPLTPELNEILDTFLNDECLLHAMHISTGLSIFDTSLFTSGGGSKRPAATKKAGQAKKKKSR
Turning to B2, the “increase in EYFP expression / EYFP induction compared to DMSO-treated controls” value in assay [1] was 441 fold.
